For assay [1], the target named is T1, full-length NS3/NS4A-2 (HCV NS3 protease) (Hepatitis C virus genotype 1b, UniProt Q9WMX2).
T1 construct: Recombinant E. coli or Baculovirus full-length NS3; host or cells: E. coli or baculovirus (BV) expression
Kind of assay: NS3 Inhibition Assay (NS3-NS4 protease assay, RETS1 substrate). It is filed as biochemical. The conditions noted are these: NS3/NS4A-2 protease. The procedure:
NS3 Complex Formation with NS4A-2.
Recombinant E. coli or Baculovirus full-length NS3 was diluted to 3.33 μM with assay buffer and transferred material to an eppendorf tube and placed in a water bath in a 4° C. refrigerator. The appropriate amount of NS4A-2 diluted to […] in assay buffer was added to equal the volume of NS3 above (conversion factor—3.8 mg/272 μL assay buffer). The material was transferred to an eppendorf tube and placed in water bath in a 4° C. refrigerator.
After equilibration to 4° C., equal volumes of NS3 and NS4A-2 solutions were combined in an eppendorf tube, mix gently with a manual pipettor, and incubate mixture for 15 minutes in the 4° C. water bath. Final concentrations in the mixture are 1.67 μM NS3, 4.15 mM NS4A-2 (2485-fold molar excess NS4A-2).
After 15 minutes at 4° C., the NS3/NS4A-2 eppendorf tube was removed and place it in a room temperature water bath for 10 minutes. NS3/NS4A-2 was aliquoted at appropriate volumes and store at −80° C. (E. coli NS3 run at 2 nM in assay, aliquot at 25 μL. BV NS3 run at 3 nM in assay, aliquot at 30 μL).
Step a. Sample compounds were dissolved to 10 mM in DMSO then diluted to 2.5 mM (1:4) in DMSO. Typically, compounds were added to an assay plate at 2.5 mM concentration, yielding upon dilution a starting concentration of 50 microM in the assay inhibition curve. Compounds were serial diluted in assay buffer to provide test solutions at lower concentrations.
Step b. The E. coli. NS3/NS4A-2 was diluted to 4 nM NS3 (1:417.5 of 1.67 μM stock−18 μL1.67 μM stock+7497 μL assay buffer). The BV NS3/NS4A-2 was diluted to 6 nM NS3 (1:278.3 of 1.67 μM stock−24 μL1.67 μM stock+6655 μL assay buffer).
Step c. Using the manual multichannel pipettor, and being careful not to introduce bubbles into the plate, 50 μL assay buffer were added to wells A01-H01 of a black Costar 96-well polypropylene storage plate.
Step d. Using the manual multichannel pipettor, and being careful not to introduce bubbles into the plate, 50 μL of diluted NS3/NS4A-2 from Step b were added to wells A02-H12 of the plate in Step c.
Step e. Using the manual multichannel pipettor, and being careful not to introduce bubbles into the plate, 25 μL of the wells in drug dilution plate in Step a were transferred to corresponding wells in assay plate in Step d. The tips on the multichannel pipettor were changed for each row of compounds transferred.
Step f Using the manual multichannel pipettor, and being careful not to introduce bubbles into the plate, the contentes of the wells from the assay plate in Step e were mixed by aspirating and dispensing 35 μL of the 75 μL in each well five times. The tips on multichannel pipettor were changed for each row of wells mixed.
Step g. The plate was covered with a polystyrene plate lid, and the plate from Step f containing NS3 protease and sample compounds was pre-incubated 10 minutes at room temperature.
While plate from Step g is pre-incubating, the RETS1 substrate was diluted in a 15 mL polypropylene centrifuge tube. The RETS1 substrate was diluted to 8 μM (1:80.75 of 646 μM stock—65 μL 646 μM stock+5184 μL assay buffer).
After the plate in Step g was done pre-incubating, and using the manual multichannel, 25 μL of substrate were added to all wells on the plate. The contents of the wells of the plate were quickly mixed, as in Step f, mixing 65 μL of the 100 μL in the wells.
The plate was read in kinetic mode on the Molecular Devices SpectraMax Gemini XS plate reader. Reader settings: Read time: 30 minutes, Interval: 36 seconds, Reads: 51, Excitation λ: 335 nm, Emission λ: 495 nm, cutoff: 475 nm, Automix: off, Calibrate: once, PMT: high, Reads/well: 6, Vmax pts: 21 or 28/51 depending on length of linearity of reaction
IC50s are determined using a four parameter curve fit equation, and converted to Ki's using the following Km's: […]
Full-length E. coli NS3−2.03 μM
Full-length BV NS3−1.74 μM
where Ki=IC50/(1+[S]/Km))

In assay [2] the test system is HCV sub-genomic replicon, GS4.3 (HuH-7 hepatoma cells). Kind of assay: Quantitation by ELISA of NPTII in the HCV sub-genomic replicon, GS4.3. The assay is classed as cell-based. The conditions noted are these: Hepatitis C virus, GS4.3 replicon cells, 72 h incubation. From the text:
Quantitation by ELISA of the Selectable Marker Protein, Neomycin Phosphotransferase II (NPTII) in the HCV Sub-Genomic Replicon, GS4.3
The HCV sub-genomic replicon (1377/NS3-3′, accession No. AJ242652), stably maintained in HuH-7 hepatoma cells, was created by Lohmann et al. Science 285: 110-113 (1999). The replicon-containing cell culture, designated GS4.3, was obtained from Dr. Christoph Seeger of the Institute for Cancer Research, Fox Chase Cancer Center, Philadelphia, Pa.
GS4.3 cells were maintained at 37° C., 5% CO2, in DMEM (Gibco 11965-092) supplemented with L-glutamine 200 mM (100×) (Gibco25030-081), non-essential amino acids (NEAA)(Biowhittaker 13-114E), heat-inactivated (HI) Fetal Bovine Serum(FBS)(Hyclone SH3007.03) and 750 μg/mL geneticin (G418)(Gibco 10131-035). Cells were sub-divided 1:3 or 4 every 2-3 days.
24 h prior to the assay, GS4.3 cells were collected, counted, and plated in 96-well plates (Costar 3585) at 7500 cells/well in […] standard maintenance medium (above) and incubated in the conditions above. To initiate the assay, culture medium was removed, cells were washed once with PBS (Gibco 10010-023) and 90 μl Assay Medium (DMEM, L-glutamine, NEAA, 10% HI FBS, no G418) was added. Inhibitors were made as a 10× stock in Assay Medium, (3-fold dilutions from 10 μM to […] final concentration, final DMSO concentration 1%), […] were added to duplicate wells, plates were rocked to mix, and incubated as above for 72 h.
An NPTII Elisa kit was obtained from AGDIA, Inc. (Compound direct ELISA test system for Neomycin Phosphotransferase II, PSP 73000/4800). Manufacturer's instructions were followed, with some modifications. 10×PEB-1 lysis buffer was made up to include 500 μM PMSF (Sigma P7626, 50 mM stock in isopropanol). After 72 h incubation, cells were washed once with PBS and […] PEB-1 with PMSF was added per well. Plates were agitated vigorously for 15 minutes, room temperature, then frozen at −70° C. Plates were thawed, lysates were mixed thoroughly, and 100 μl were applied to an NPTII Elisa plate. A standard curve was made. Lysate from DMSO-treated control cells was pooled, serially diluted with PEB-1 with PMSF, and applied to duplicate wells of the ELISA plate, in a range of initial lysate amount of 150 μL-2.5 μL. In addition, 100 μL buffer alone was applied in duplicate as a blank. Plates were sealed and gently agitated at room temperature for 2 h. Following capture incubation, the plates were washed 5×300 μL with PBS-T (0.5% Tween-20, PBS-T was supplied in the ELISA kit). For detection, a 1× dilution of enzyme conjugate diluent MRS-2 (5×) was made in PBS-T, into which 1:100 dilutions of enzyme conjugates A and B were added, as per instructions. Plates were resealed, and incubated with agitation, covered, room temperature, for 2 h. The washing was then repeated and 100 μL, of room temperature TMB substrate was added. After approximately 30 minutes incubation (room temperature, agitation, covered), the reaction was stopped with 50 μL, 3M sulfuric acid. Plates were read at 450 nm on a Molecular Devices Versamax plate reader.
Inhibitor effect was expressed as a percentage of DMSO-treated control signal, and inhibition curves were calculated using a 4-parameter equation: y=A+((B−A)/(1+((C/x)̂D))), where C is half-maximal activity or EC50.

T1 sequence (Q9WMX2 1027-1657): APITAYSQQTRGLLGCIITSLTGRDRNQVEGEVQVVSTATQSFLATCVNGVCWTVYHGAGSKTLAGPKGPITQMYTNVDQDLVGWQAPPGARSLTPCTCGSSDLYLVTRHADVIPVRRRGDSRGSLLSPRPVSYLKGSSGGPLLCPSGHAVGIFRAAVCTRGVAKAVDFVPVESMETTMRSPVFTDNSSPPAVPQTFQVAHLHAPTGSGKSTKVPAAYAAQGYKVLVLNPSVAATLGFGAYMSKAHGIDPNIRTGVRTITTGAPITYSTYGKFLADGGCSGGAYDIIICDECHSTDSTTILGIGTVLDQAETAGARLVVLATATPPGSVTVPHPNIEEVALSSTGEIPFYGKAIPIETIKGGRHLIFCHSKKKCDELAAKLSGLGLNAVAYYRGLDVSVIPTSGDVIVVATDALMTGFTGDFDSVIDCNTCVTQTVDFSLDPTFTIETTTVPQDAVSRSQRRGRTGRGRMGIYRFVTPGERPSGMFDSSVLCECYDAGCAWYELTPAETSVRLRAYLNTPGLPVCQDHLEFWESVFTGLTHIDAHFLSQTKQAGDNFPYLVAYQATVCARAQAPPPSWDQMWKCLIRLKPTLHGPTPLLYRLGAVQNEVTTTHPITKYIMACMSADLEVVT
T1 sequence (Q9WMX2 1658-1711): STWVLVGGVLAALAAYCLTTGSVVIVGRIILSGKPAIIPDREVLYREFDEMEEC

Turning to `CC[C@@H]1C[C@]1(NC(=O)[C@@H]1C[C@@H](OC(=O)N2Cc3cccc(F)c3C2)CN1C(=O)[C@@H](Nc1ccc(F)c(C#N)c1)C(C)(C)C)C(=O)NS(=O)(=O)C1CC1` [Compound 15], in assay [1], the IC50 is below 100 nM. In assay [2], this molecule had an EC50 of 100 to 1000 nM.

Regarding `C=C[C@@H]1C[C@]1(NC(=O)[C@@H]1C[C@@H](Oc2cc(-c3nc(C(C)C)cs3)nc3c(C)c(OC)ccc23)CN1C(=O)[C@@H](Nc1cc(Cl)cc(C(F)(F)F)c1)C(C)(C)C)C(=O)NS(=O)(=O)C1(C)CC1` [Compound 403], in assay [1], the IC50 was below 100 nM. The molecule also registered an EC50 in assay [2] below 100 nM.

As to `C=C[C@@H]1C[C@]1(NC(=O)[C@@H]1C[C@@H](Oc2cc(-c3nc(C(C)C)cs3)nc3c(C)c(OC)ccc23)CN1C(=O)[C@@H](Nc1cc(C)cc(C(F)(F)F)c1)C(C)(C)C)C(=O)NS(=O)(=O)C1(C)CC1` [Compound 402], in assay [1], the IC50 is below 100 nM. This molecule yielded an EC50 in assay [2] below 100 nM.

`CC[C@@H]1C[C@]1(NC(=O)[C@@H]1C[C@@H](Oc2cc(-c3ccccc3)nc3cc(OC)ccc23)CN1C(=O)[C@@H](Nc1cccc(C(F)(F)F)c1)C(C)(C)C)C(=O)NS(=O)(=O)C1(C)CC1` [Compound 230] yielded an IC50 in assay [1] below 100 nM. In assay [2], this molecule gave an EC50 below 100 nM.

`CC[C@@H]1C[C@]1(NC(=O)[C@@H]1C[C@@H](OC(=O)N2Cc3ccc(NC(=O)COCCOCCOC)cc3C2)CN1C(=O)[C@@H](Nc1cc(F)cc(C(F)(F)F)c1)C(C)(C)C)C(=O)NS(=O)(=O)C1CC1` [Compound 18] had an IC50 in assay [1] of 100 to 1000 nM. In addition, the EC50 in assay [2] is 100 to 1000 nM.

In assay [1], `C=C[C@@H]1C[C@]1(NC(=O)[C@@H]1Cc2cc(Oc3cccc(Cl)c3)ccc2CN1C(=O)[C@@H](Nc1ccc(F)cc1)C(C)(C)C)C(=O)NS(=O)(=O)C1(C)CC1` [Compound 25] gave an IC50 below 100 nM.

`CC[C@@H]1C[C@]1(NC(=O)[C@@H]1C[C@@H](OC(=O)N2Cc3cccc(F)c3C2)CN1C(=O)[C@@H](Nc1ccc(-n2cccn2)cc1)C(C)(C)C)C(=O)NS(=O)(=O)C1CC1` [Compound 16] had an IC50 in assay [1] below 100 nM. The same molecule displayed an EC50 in assay [2] of 100 to 1000 nM.

`CC[C@@H]1C[C@]1(NC(=O)[C@@H]1C[C@@H](OC(=O)N2Cc3cccc(Cl)c3C2)CN1C(=O)[C@@H](Nc1cc(F)cc(C(F)(F)F)c1)C(C)(C)C)C(=O)NS(=O)(=O)C1(C)CC1` [Compound 283] had an IC50 in assay [1] below 100 nM. The same molecule yielded an EC50 in assay [2] below 100 nM.

For the molecule `C=C[C@@H]1C[C@]1(NC(=O)[C@@H]1C[C@@H](Oc2nccc3ccccc23)CN1C(=O)[C@@H](Nc1ccc(F)c(C(F)(F)F)c1)C(C)(C)C)C(=O)NS(=O)(=O)C1CC1` [Compound 6], the IC50 in assay [1] is below 100 nM. The same molecule registered an EC50 in assay [2] below 100 nM.

`CC[C@@H]1C[C@]1(NC(=O)[C@@H]1C[C@@H](Oc2cc(-c3nc(C(C)C)cs3)nc3c(C)c(OC)ccc23)CN1C(=O)[C@@H](Nc1cccc(C(F)(F)F)c1)C(C)(C)C)C(=O)NS(=O)(=O)N(C)C` [Compound 297] gave an IC50 in assay [1] below 100 nM. This molecule had an EC50 in assay [2] below 100 nM.

As for `CC[C@@H]1C[C@]1(NC(=O)[C@@H]1C[C@@H](OC(=O)N2Cc3cccc(F)c3C2)CN1C(=O)[C@@H](Nc1cccc(OC(F)(F)F)c1)C(C)(C)C)C(=O)NS(=O)(=O)C1CC1` [Compound 12], the IC50 in assay [1] is below 100 nM. This molecule also displayed an EC50 in assay [2] below 100 nM.

As to `C=C[C@@H]1C[C@]1(NC(=O)[C@@H]1C[C@@H](Oc2cc(-c3nc(C(C)C)cs3)nc3c(C)c(OC)ccc23)CN1C(=O)[C@@H](Nc1ccc(F)c(C(F)(F)F)c1)C(C)(C)C)C(=O)NS(=O)(=O)N(C)C` [Compound 400], the IC50 in assay [1] was below 100 nM. In assay [2], this molecule gave an EC50 below 100 nM.

`C=C[C@@H]1C[C@]1(NC(=O)[C@@H]1Cc2cc(Oc3cccc(Cl)c3)ccc2CN1C(=O)[C@@H](Nc1ccc(F)cc1)C(C)(C)C)C(=O)NS(=O)(=O)C1CC1` [Compound 27] registered an IC50 in assay [1] below 100 nM.

With `CC[C@@H]1C[C@]1(NC(=O)[C@@H]1C[C@@H](Oc2cc(-c3nc(C(C)C)cs3)nc3c(C)c(OC)ccc23)CN1C(=O)[C@@H](Nc1cc(F)cc(C(F)(F)F)c1)C(C)(C)C)C(=O)NS(=O)(=O)C1(C)CC1` [Compound 300], the EC50 in assay [2] was below 100 nM.

As to `C=C[C@@H]1C[C@]1(NC(=O)[C@@H]1Cc2cc(Oc3cccc(Cl)c3)ccc2CN1C(=O)[C@@H](Nc1ccc(F)cc1)C(C)(C)C)C(=O)NS(=O)(=O)C1CC1` [Compound 28], in assay [1], the IC50 lay in the range of 100 to 1000 nM.

`C=C[C@@H]1C[C@]1(NC(=O)[C@@H]1Cc2cc(Oc3cccc(Cl)c3)ccc2CN1C(=O)[C@@H](Nc1cccc(C(F)(F)F)c1)C(C)(C)C)C(=O)NS(=O)(=O)C1(C)CC1` [Compound 21]: the IC50 in assay [1] was below 100 nM.

As for `C=C[C@@H]1C[C@]1(NC(=O)[C@H]1Cc2cc(Oc3cccc(Cl)c3)ccc2CN1C(=O)[C@@H](Nc1ccc(F)cc1)C(C)(C)C)C(=O)NS(=O)(=O)C1(C)CC1` [Compound 26], the IC50 in assay [1] lay in the range of 100 to 1000 nM.

One may read the IC50 as the concentration that gives 50% inhibition. Broadly, the EC50 is the concentration that produces a half-maximal response. High values mean a less potent agent, low ones a more potent agent.

The values are drawn from patent US20100119479A1, “THERAPEUTIC ANTIVIRAL PEPTIDES” (INTERMUNE, INC., priority 2008, published 2010).
